# Measurements published in patent US5773569A (Affymax Technologies N.V., priority 1995, dated 1998).
# Residues, ends and D or L forms follow the SMILES beside them.
# How the values were obtained:
# [1] = target: T1, PIG-tailed EPO-R immobilized on mAb179 (Homo sapiens, UniProt P19235); experiment: PIG-tailed EPO-R radioligand competition binding assay; conditions: streptavidin 4:1 experiment; free peptide concentrations
# T1 construct: comprised the extracellular domain of the EPO-receptor; thrombin cleavage site (internal); made in house
# T1 sequence (P19235 25-250 limits assumed): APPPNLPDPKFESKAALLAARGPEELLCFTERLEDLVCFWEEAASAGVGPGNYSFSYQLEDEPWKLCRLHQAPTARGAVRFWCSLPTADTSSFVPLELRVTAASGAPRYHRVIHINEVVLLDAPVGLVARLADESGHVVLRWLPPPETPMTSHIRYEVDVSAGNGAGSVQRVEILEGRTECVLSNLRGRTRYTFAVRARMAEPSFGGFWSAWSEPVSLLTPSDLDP
# Procedure: Affinity was determined using a radioligand competition binding assay against PIG-tailed EPOR immobilized on mAB179.
# The recombinant receptor protein was immobilized using the following methodology. Microtiter plates were coated within an anti-receptor antibody and the wells which were to contain the immobilized receptor were treated with bovine serum albumin (BSA) to block non-specific binding. The PIG-tailed receptor having a thrombin cleavage site was added to the coated wells of the microtiter plate, which were then washed to remove unbound receptor.
# IC50 s were calculated for several of the peptides falling within the general motifs described above.
# This peptide was incubated with streptavidin in PBS at a 4:1 molar ratio at room temperature for one hour.
# The affinity of the dimer was tested against the PIG-tailed EPOR immobilized on mAbl179 in strip wells.
# [2] = target: T2, extracellular domain of the human erythropoietin receptor (EPO binding protein, EBP) (Homo sapiens, UniProt P19235); experiment: Immobilized EBP based [125I]EPO competition binding assay; conditions: IC50 relative to RWJ61233 (IC50 5 μM); cyclic peptides, COOH terminal amides
# T2 construct: made in house
# T2 sequence (P19235 25-250 limits assumed): T1 sequence (P19235 25-250 limits assumed)
# Procedure: The iodoacetyl activation chemistry of Sufolink beads (Pierce Chemical Co, Rockford, Ill.) is specific for free thiols and assures that the linkage is not easily reversible. EBP-Sulfolink beads were made as follows: SulfoLink gel suspension (10 ml) was mixed with coupling buffer (40 ml: 50 mM Tris, pH 8.3, 5 mM EDTA) and the gel was allowed to settle. The supernatant was removed and the EBP (0.3-1 mg/ml in coupling buffer) to be bound was added directly to the washed beads. The mixture was rocked gently for 30 minutes at room temperature, and the beads were allowed to settle for 1 hour at room temperature. […] The amount of EBP which was covalently bound to the beads was determined by comparing the OD280 of the original EBP solution to the total OD280 recovered in the reaction supernatant and the two 20 ml washes.
# Binding assays were initiated by the addition of EBP beads (50 μl) to individual reaction tubes. […] The tubes were incubated for five hours (a time period experimentally determined as adequate for the establishment of equilibrium) at room temperature with gentle rocking. […]
# Competitive binding analysis assays of candidate peptides were performed as outlined below. […] The columns containing the washed beads were placed in 12×75 mm glass tubes and bound radioactivity levels were determined using a gamma counter.
# [3] = target: T3, murine receptor (FDC-P1/ER cells) (Mus musculus, UniProt P14753); experiment: cell-based; conditions: EPO-ED50 (μM)* murine receptor, Tables 20-21; IA = inactive
# T3 sequence (P14753 25-507): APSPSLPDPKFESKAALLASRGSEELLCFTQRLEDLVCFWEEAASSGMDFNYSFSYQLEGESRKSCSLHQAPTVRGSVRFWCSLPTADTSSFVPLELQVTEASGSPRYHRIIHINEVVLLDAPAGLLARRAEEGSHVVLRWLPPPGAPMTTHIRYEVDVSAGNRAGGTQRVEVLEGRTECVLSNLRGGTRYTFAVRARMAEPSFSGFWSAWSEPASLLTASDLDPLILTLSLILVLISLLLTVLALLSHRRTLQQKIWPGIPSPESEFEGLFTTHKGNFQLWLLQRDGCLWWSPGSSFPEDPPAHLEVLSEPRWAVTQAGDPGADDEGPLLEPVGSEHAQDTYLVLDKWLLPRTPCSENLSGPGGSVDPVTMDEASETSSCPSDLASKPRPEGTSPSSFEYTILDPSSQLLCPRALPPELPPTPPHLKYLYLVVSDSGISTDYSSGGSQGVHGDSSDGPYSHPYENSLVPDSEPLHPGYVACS
# Procedure: Sample Preparation: Peptides were resuspended in DMSO as a 1×10^-2 M stock solution and serially diluted in 10-fold increments to generate the following 100×solutions:
# Two μl of each stock dilution was added to a cell well as described below in a total volume of 200 μl to generate final concentrations as follows:
# (§5) Cells are harvested and resuspended in fresh medium without growth factor (erytiropoietin) for 24 hr. Cells are counted and resuspended at a concentration of 800,000 cells/ml. Approximately forty thousand cells (50μ) are added to each well of a 96 well microtiter plate. Peptide is added to each well in triplicate. A standard dose response determination is run with each series of peptides. After a forty-two hr incubation (≈2 doubling), each well is pulsed with 1 μCi/well Thymidine. Cells are incubated an additional six hr at which time cells are harvested and counted to assess thymidine incorporation as an indicator of cell proliferation.
# [4] = target: T4, truncated human erythropoietin receptor cell line (Homo sapiens, UniProt P19235); experiment: cell-based
# T4 sequence (P19235 25-468 limits assumed): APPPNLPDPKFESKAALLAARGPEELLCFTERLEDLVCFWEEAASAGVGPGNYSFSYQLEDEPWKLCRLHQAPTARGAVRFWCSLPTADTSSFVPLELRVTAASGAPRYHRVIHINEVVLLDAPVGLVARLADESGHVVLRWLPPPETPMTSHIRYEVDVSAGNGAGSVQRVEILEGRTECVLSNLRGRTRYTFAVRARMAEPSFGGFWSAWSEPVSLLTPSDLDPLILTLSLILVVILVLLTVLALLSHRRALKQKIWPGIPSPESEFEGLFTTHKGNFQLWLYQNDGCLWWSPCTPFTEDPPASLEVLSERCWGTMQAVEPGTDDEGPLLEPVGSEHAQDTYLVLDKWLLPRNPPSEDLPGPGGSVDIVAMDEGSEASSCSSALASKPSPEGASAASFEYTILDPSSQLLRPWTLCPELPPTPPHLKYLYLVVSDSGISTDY
# Procedure: as §5
# FDCP-1/muER cells = experiment: Peptide-induced initiation of cell cycle measured by DNA content; format: cell-based, murine; conditions: 10 U/ml; ten hours postinduction; medium control 15%
# Procedure: F. Cellular response kinetics: Peptide-Induced Initiation of Cell Cycle Measured By DNA Content
# 1. Experimental Protocol: FDCP-1/muER cells were grown to stationery phase ≈3.0×10^6 cells/ml. […] Three million cells were collected at the following time points: 0, 6, 8, 10, and 12 hr. (see, FIG. 15). Cells were washed twice in cold PBS and fixed by resuspending the cell pellet in 100 μl of cold PBS followed by 900 μl of cold 70% ethanol. Cells were stained with 50 μg/ml of propidium iodine and fluorescence was measured on FACS Scan Flow cytometer. The percentage of cells in each phase was measured using the SOBR model of CelIFIT software, by Becton Dickinson.
# [5] = test system: human peripheral blood mononuclear cells; experiment: Colony assay on a human peripheral blood specimen; format: cell-based
# Procedure: (§1) G. Colony Assay: Murine Bone Marrow and Human Peripheml Blood Colony Assay
# (§2) A ten milliliter sample of peripheral blood was obtained from a healthy individual in a standard sterile heparin vacutainer tube. Murine bone marrow was obtained from the femurs of approximately 10 mice per experiment. All reagents were obtained from Stem Cell Technologies Inc. (Vancouver, Canada).
# (§3) a. Experimental Protocol: Briefly, a nucleated cell count was performed to establish the number and concentration of nucleated cells in the original sample. In the case of peripheral blood, the sample is subjected to centrifugation through a Ficoll-Hypaque (1.077 g per ml) gradient at 400 g for 30 minutes at room temperature. Mononuclear cells at the interface of the Ficoll-Hypaque solution are carefully removed and diluted to a total volume of about 10 ml. The cells obtained from murine bone marrow or human peripheral blood were collected by centrifugation and the supernatant was decanted. The pelleted cells were resuspended in fresh medium and subjected to collection as described above. The washed cells were diluted in Iscove's medium/2% fetal bovine serum to the following concentration for plating:
# Normal blood: 4×10^5 light density cells
# (§4) Cells were added to methyl cellulose per directions of the manufacturer. […] Equivalent cell numbers were plated in "Complete" methylcellulose medium to assess maximal colony formation. A control plate was run with each assay minus EPO and peptide to determine background colony formation. Colonies were scored after both 10 days and 18 days of incubation.
# murine bone marrow cells = experiment: Colony assay, murine bone marrow; format: cell-based; conditions: EPO
# Procedure: as §1, §2, §3
# Normal marrow: 1×10^5 light density cells
# as §4
# [6] = test system: polycythemic exhypoxic mice (59Fe incorporation); experiment: Polycythemic exhypoxic mouse bioassay; format: in vivo; conditions: subcutaneous
# Procedure: J. Polycythemic Exhypoxic Mouse Bioassay
# Female BDF1 mice (18-20 gms) are subjected to a conditioning cycle (in hypobaric chambers) of 18 hrs. at 0.40±0.02 atm. and 6 hrs. at ambient pressure for a period of 14 days.
# Mice are maintained at ambient pressure for 72 hrs prior to administration of r-HuEPO or test samples. Test samples or r-HuEPO standard are diluted for injection into conditioned mice. The vehicle consists of: PBS containing 0.1% BSA (w/v). For each dilution, 0.5 ml is administered subcutaneously into each of 10 mice. ^59 Fe is administered 48 hrs. later. Blood samples are taken 48 hrs. following administration of ^59 Fe. Hematocrits and radioactivity measurements are determined for each sample. Dose range and results (two different assays) are set forth in Table 22 and FIGS. 17A-17C, infra.
# [7] = scored 2/23/94, EPO (METHOCULT)
molecule,measurement,setting,value
"CC(C)C[C@@H]1NC(=O)[C@@H]2CCCN2C(=O)CNC(=O)[C@H](Cc2ccccc2)NC(=O)[C@H](Cc2c[nH]cn2)NC(=O)[C@@H](NC(=O)[C@H](CO)NC(=O)[C@H](Cc2ccc(O)cc2)NC(=O)[C@@H](NC(=O)CNC(=O)CN)[C@@H](C)O)CSSC[C@@H](C(=O)N[C@@H](CCCCN)C(=O)N2CCC[C@H]2C(=O)N[C@@H](CCC(N)=O)C(=O)NCC(=O)NCC(=O)N[C@@H](CO)C(=O)N[C@@H](CO)C(=O)N[C@@H](CCCCNC(=O)CCCCCNC(=O)CCCC[C@@H]2SC[C@@H]3NC(=O)N[C@@H]32)C(N)=O)NC(=O)[C@H](C(C)C)NC(=O)[C@H](Cc2c[nH]c3ccccc23)NC(=O)[C@H]([C@@H](C)O)NC1=O (HELM PEPTIDE1{G.G.T.Y.S.C.H.F.G.P.L.T.W.V.C.K.P.Q.G.G.S.S.K.[am]}|PEPTIDE2{[O=C1N[C@H]2[C@H](CS[C@H]2CCCCC(=O)[*:2])N1].[O=C(CCCCCN[*:1])[*:2]]}$PEPTIDE1,PEPTIDE2,23:R3-2:R2|PEPTIDE1,PEPTIDE1,6:R3-15:R3$$$V2.0; N-terminus and C-terminus assumed)",IC50,[1],350 nM
"CC(=O)NCC(=O)NCC(=O)N[C@H](C(=O)N[C@@H](Cc1ccc(O)cc1)C(=O)N[C@@H](CO)C(=O)N[C@H]1CSSC[C@@H](C(=O)N[C@@H](CCCCN)C(=O)N2CCC[C@H]2C(=O)N[C@@H](CCC(N)=O)C(=O)NCC(=O)NCC(N)=O)NC(=O)[C@H](C(C)C)NC(=O)[C@H](Cc2c[nH]c3ccccc23)NC(=O)[C@H]([C@@H](C)O)NC(=O)[C@H](CC(C)C)NC(=O)[C@@H]2CCCN2C(=O)CNC(=O)[C@H](Cc2ccccc2)NC(=O)[C@H](Cc2c[nH]cn2)NC1=O)[C@@H](C)O [RWJ 62146] (HELM PEPTIDE1{[ac].G.G.T.Y.S.C.H.F.G.P.L.T.W.V.C.K.P.Q.G.G.[am]}$PEPTIDE1,PEPTIDE1,7:R3-16:R3$$$V2.0)",Relative Binding,[2],4
same,EC50,[3],0.03 µM
same,EC50,[4],60 nM
"EPO: Erythropoietin, glycoprotein hormone with 165 amino acids; recombinant standard",cells in S phase,FDCP-1/muER cells,approximately 45%
same,CFU-E,"[5]; scored 2/23/94, 3 U/ml",7
same,MBFU-E,"[5]; scored 2/23/94, 3 U/ml",7
same,CFU-E,[5]; [7],11
same,MBFU-E,[5]; [7],25
same,CFU-E,"[5]; scored 3/4/94, 3 U/ml",4
same,CFU-GM,"[5]; scored 3/4/94, 3 U/ml",3
same,MBFU-E,"[5]; scored 3/4/94, 3 U/ml",7
same,PBFU-E,"[5]; scored 3/4/94, 3 U/ml",7
same,CFU-E,"[5]; scored 3/4/94, EPO (METHOCULT)",1
same,CFU-GM,"[5]; scored 3/4/94, EPO (METHOCULT)",9
same,MBFU-E,"[5]; scored 3/4/94, EPO (METHOCULT)",11
same,PBFU-E,"[5]; scored 3/4/94, EPO (METHOCULT)",13
same,BFU-E colony-forming cell numbers,"murine bone marrow cells; Table 14 (1/28/94), 2/10/94",5
same,CFU-E colony-forming cell numbers,"murine bone marrow cells; Table 14 (1/28/94), 2/10/94",23
same,CFU-GM colony-forming cell numbers,"murine bone marrow cells; Table 14 (1/28/94), 2/10/94",3
same,BFU-E colony-forming cell numbers,"murine bone marrow cells; Table 14 (1/28/94), 2/21/94",30
same,CFU-E colony-forming cell numbers,"murine bone marrow cells; Table 14 (1/28/94), 2/21/94",0
same,CFU-GM colony-forming cell numbers,"murine bone marrow cells; Table 14 (1/28/94), 2/21/94",3
same,BFU-E colony-forming cell numbers,"murine bone marrow cells; Table 15 (2/21/94), 3/1/94",3
same,CFU-E colony-forming cell numbers,"murine bone marrow cells; Table 15 (2/21/94), 3/1/94",3
same,CFU-GM colony-forming cell numbers,"murine bone marrow cells; Table 15 (2/21/94), 3/1/94",> 10
same,CFU-E colony-forming cell numbers,"murine bone marrow cells; Table 15 (2/21/94), 3/14/94",0
same,CFU-GM colony-forming cell numbers,"murine bone marrow cells; Table 15 (2/21/94), 3/14/94",26
same,MBFU-E colony-forming cell numbers,"murine bone marrow cells; Table 15 (2/21/94), 3/14/94",0
same,PBFU-E colony-forming cell numbers,"murine bone marrow cells; Table 15 (2/21/94), 3/14/94",10
same,LOG MEAN,[6]; dose 0.025 U,1.65
same,LOG MEAN,[6]; dose 0.050 U,2.74
same,LOG MEAN,[6]; dose 0.100 U,3.28
RWJ 61721 (GGTYSEHFGPLTWVKKPQGG),Relative Binding,[2],> 100
